Values quoted from earlier work as cited in US20080286370A1, “Nanoscale Particles Used as Contrasting Agents in Magnetic Resonance Imaging” (priority 2005, published 2008).

Key:
[1] = in vivo
[2] = copper or zinc
[3] = human, in vivo

## O=C([O-])CN1CCN(CC(=O)[O-])CCN(CC(=O)O)CCN(CC(=O)[O-])CC1.[Gd+3] [Gd-DOTA, gadoteric acid]
[1]
  eliminated: 75%
  passage through the blood/brain barrier: do not pass through the blood/brain barrier
[2]
  exchange of gadolinium with endogenic metal ions: less than 1%
[3]
  adverse effect on vital parameters or renal function: absolutely no adverse effect
  patients who suffered from nausea: 8
  patients who suffered from vomiting: 5
  pseudohypocalcaemia: has not caused pseudohypocalcaemia
  side-effect rate: 0.84-0.97%
  systemic osmolality effects: negligible
  temperature, headaches, an unwell feeling, skin rash and an unpleasant taste in the mouth: less than 0.15%
  total rate of nausea and vomiting: 0.31%
